Experimental data reported in PubChem BioAssay AID264 (DTP/NCI, 2004).
Where “and” joins values, the source holds several entries; their conditions need not be identical. Identical values can stand only once. Inconclusive results are not listed.

Tested on: nude mice, LX-1 lung xenograft intrarenal, tumor weight T/C
Assay: NCI In Vivo Anticancer Drug Screen. Data for tumor model Human Lung LX-1 Xenograft (intrarenal inoculation) in NU/NU Swiss (nude) mice
Settings: endpoint: mean tumor weight change, higher = larger tumour
Outline: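 Compound-treated mice carrying transplanted tumors were compared with vehicle-treated controls. Tumor size was the measured end point, and the value is the treated-group measurement divided by the control-group measurement (T/C).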

[1] = dose: 50.0 mg/kg/injection, schedule: Q01DX010 (sc), vehicle: saline with Tween-80
[2] = dose: 100.0 mg/kg/injection, schedule: Q01DX010 (sc), vehicle: saline with Tween-80
[3] = dose: 300.0 mg/kg/injection, schedule: Q04DX003 (sc), vehicle: saline with Tween-80
[4] = dose: 600.0 mg/kg/injection, schedule: Q04DX003 (sc), vehicle: saline with Tween-80
[5] = dose: 1200.0 mg/kg/injection, schedule: Q04DX003 (sc), vehicle: saline with Tween-80
[6] = dose: 300.0 mg/kg/injection, schedule: Q04DX003 (sc), vehicle: Klucel (hydroxypropylcellulose) (HPC)
[7] = dose: 600.0 mg/kg/injection, schedule: Q04DX003 (sc), vehicle: Klucel (hydroxypropylcellulose) (HPC)
[8] = dose: 2400.0 mg/kg/injection, schedule: Q04DX003 (sc), vehicle: Klucel (hydroxypropylcellulose) (HPC)
[9] = dose: 150.0 mg/kg/injection, schedule: Q04DX003 (sc), vehicle: saline with Tween-80
[10] = dose: 2400.0 mg/kg/injection, schedule: Q04DX003 (sc), vehicle: saline with Tween-80

Compound: O=CN(SSN(C=O)C1CCCCC1)C1CCCCC1
- T/C [1]: 395 % of control
- T/C [2]: 104 % of control
- T/C (dose: 200.0 mg/kg/injection, schedule: Q01DX010 (sc), vehicle: saline with Tween-80): 234 % of control
- T/C (dose: 400.0 mg/kg/injection, schedule: Q01DX010 (sc), vehicle: saline with Tween-80): 97 % of control and 122 % of control
- T/C (dose: 800.0 mg/kg/injection, schedule: Q01DX010 (sc), vehicle: saline with Tween-80): 48 % of control
- T/C (dose: 1600.0 mg/kg/injection, schedule: Q01DX010 (sc), vehicle: saline with Tween-80): 54 % of control

Compound: NC(=S)N/N=C/c1ccc(OC(=O)COc2ccccc2)cn1
- T/C [3]: 77 % of control
- T/C [4]: 73 % of control
- T/C [5]: 37 % of control

Compound: O=C1N[C@@H]([C@H]2CC[C@H](Cl)CN2)C(=O)N[C@H]1[C@H]1CC[C@H](Cl)CN1
- T/C (dose: 0.63 mg/kg/injection, schedule: Q01DX010 (sc), vehicle: water): 124 % of control
- T/C (dose: 1.25 mg/kg/injection, schedule: Q01DX010 (sc), vehicle: water): 98 % of control
- T/C (dose: 5.0 mg/kg/injection, schedule: Q01DX010 (sc), vehicle: water): 22 % of control
- T/C (dose: 5.0 mg/kg/injection, schedule: Q04DX003 (sc), vehicle: water): 70 % of control
- T/C (dose: 10.0 mg/kg/injection, schedule: Q04DX003 (sc), vehicle: water): 58 % of control

Compound: Nc1nc(=S)c2ncn(C3CC(O)C(CO)O3)c2[nH]1 (stereo not given)
- T/C (dose: 0.31 mg/kg/injection, schedule: Q01DX010 (sc), vehicle: saline with Tween-80): 108 % of control
- T/C (dose: 0.63 mg/kg/injection, schedule: Q01DX010 (sc), vehicle: saline with Tween-80): 66 % of control
- T/C (dose: 1.25 mg/kg/injection, schedule: Q01DX010 (sc), vehicle: saline with Tween-80): 85 % of control
- T/C (dose: 2.5 mg/kg/injection, schedule: Q01DX010 (sc), vehicle: saline with Tween-80): 83 % of control

Compound: O=CC=O
- T/C [1]: 82 % of control
- T/C [2]: 61 % of control

Compound: C/C(=N\N=C(/[Se])N1CC2CCC(CC2)C1)c1ccccn1
- T/C (dose: 12.5 mg/kg/injection, schedule: Q04DX003 (sc), vehicle: Klucel (hydroxypropylcellulose) (HPC)): 100 % of control
- T/C (dose: 25.0 mg/kg/injection, schedule: Q04DX003 (sc), vehicle: Klucel (hydroxypropylcellulose) (HPC)): 79 % of control
- T/C (dose: 50.0 mg/kg/injection, schedule: Q04DX003 (sc), vehicle: Klucel (hydroxypropylcellulose) (HPC)): 85 % of control
- T/C (dose: 100.0 mg/kg/injection, schedule: Q04DX003 (sc), vehicle: Klucel (hydroxypropylcellulose) (HPC)): 253 % of control

Compound: O=c1[nH]c(=O)n(C2CC(O)C(CO)O2)cc1C(F)(F)F (stereo not given)
- T/C (dose: 50.0 mg/kg/injection, schedule: Q01DX010 (sc), vehicle: saline): 91 % of control
- T/C (dose: 100.0 mg/kg/injection, schedule: Q01DX010 (sc), vehicle: saline): 100 % of control
- T/C (dose: 200.0 mg/kg/injection, schedule: Q01DX010 (sc), vehicle: saline): 51 % of control
- T/C (dose: 400.0 mg/kg/injection, schedule: Q01DX010 (sc), vehicle: saline): 30 % of control

Compound: N[C@@H](Cc1ccc(N(CCCl)CCCl)cc1)C(=O)O
- T/C (dose: 1.0 mg/kg/injection, schedule: Q01DX010 (sc), vehicle: saline): 107 % of control

Compound: CSc1ccc2c(c1)C(N1CCN(C)CC1)Cc1ccccc1S2 (stereo not given)
- T/C (dose: 25.0 mg/kg/injection, schedule: Q04DX003 (sc), vehicle: saline with Tween-80): 152 % of control
- T/C (dose: 50.0 mg/kg/injection, schedule: Q04DX003 (sc), vehicle: saline with Tween-80): 88 % of control
- T/C (dose: 100.0 mg/kg/injection, schedule: Q04DX003 (sc), vehicle: saline with Tween-80): 171 % of control

Compound: C[Si](C)(C)OSc1ccccc1[N+](=O)[O-]
- T/C [6]: 150 % of control
- T/C [7]: 151 % of control
- T/C [8]: 123 % of control

Compound: c1ccc2c(c1)-c1ccccc1C1NC21 (stereo not given)
- T/C (dose: 37.5 mg/kg/injection, schedule: Q04DX003 (sc), vehicle: saline with Tween-80): 82 % of control
- T/C (dose: 75.0 mg/kg/injection, schedule: Q04DX003 (sc), vehicle: saline with Tween-80): 56 % of control
- T/C [9]: 45 % of control

Compound: O=[N+]([O-])c1ccc(N2CCOCC2)c2c1no[n+]2[O-]
- T/C [9]: 101 % of control
- T/C [3]: 57 % of control
- T/C [4]: 77 % of control
- T/C [5]: 98 % of control

Compound: CCCCCC#CC1OC12CCCCC2 (stereo not given)
- T/C [3]: 97 % of control
- T/C [4]: 93 % of control
- T/C [5]: 60 % of control
- T/C [10]: 79 % of control

Compound: NCC1CCC(C(=O)O)CC1 (stereo not given)
- T/C [3]: 167 % of control
- T/C [4]: 104 % of control
- T/C [5]: 75 % of control
- T/C [10]: 79 % of control

Compound: Brc1c(NC2=NCCN2)ccc2nccnc12
- T/C (dose: 25.0 mg/kg/injection, schedule: Q04DX003 (sc), vehicle: saline): 75 % of control
- T/C (dose: 50.0 mg/kg/injection, schedule: Q04DX003 (sc), vehicle: saline): 55 % of control
- T/C (dose: 100.0 mg/kg/injection, schedule: Q04DX003 (sc), vehicle: saline): 79 % of control
- T/C (dose: 200.0 mg/kg/injection, schedule: Q04DX003 (sc), vehicle: saline): 69 % of control

Compound: O=c1[nH]c(=O)n(C2OC(CO)C(O)C2O)cc1F (stereo not given)
- T/C (dose: 9.37 mg/kg/injection, schedule: Q04DX003 (sc), vehicle: saline): 77 % of control
- T/C (dose: 18.75 mg/kg/injection, schedule: Q04DX003 (sc), vehicle: saline): 26 % of control

Compound: COC1CC(C)C(OC)C2=CC(=O)C=C(NC(=O)/C(C)=C/C=C\C(C)C(OC(N)=O)/C(C)=C\C(C)C1OC)C2=O (stereo not given)
- T/C (dose: 12.5 mg/kg/injection, schedule: Q04DX003 (sc), vehicle: saline + alcohol): 35 % of control
- T/C (dose: 25.0 mg/kg/injection, schedule: Q04DX003 (sc), vehicle: saline + alcohol): 87 % of control
- T/C (dose: 50.0 mg/kg/injection, schedule: Q04DX003 (sc), vehicle: saline + alcohol): 73 % of control

Compound: O=c1[nH]cnc2n[nH]nc12
- T/C [6]: 100 % of control
- T/C [7]: 92 % of control
- T/C (dose: 1200.0 mg/kg/injection, schedule: Q04DX003 (sc), vehicle: Klucel (hydroxypropylcellulose) (HPC)): 35 % of control
- T/C [8]: 27 % of control

Compound: CN(C)C1C(=O)C(C(=O)NP(=O)(NCCCO)N(CCCl)CCCl)=C(O)C2(O)C(=O)C3=C(O)c4c(O)cccc4C(C)(O)C3CC12 (stereo not given)
- T/C [3]: 47 % of control

Compound: CO[C@H](C(=O)[C@@H](O)[C@@H](C)O)[C@@H]1Cc2cc3cc(OC4CC(OC5CC(O)C(O)C(C)O5)C(O)C(C)O4)c(C)c(O)c3c(O)c2C(=O)[C@H]1OC1CC(OC2CC(OC3CC(C)(O)C(O)C(C)O3)C(O)C(C)O2)C(O)C(C)O1 (stereo not given in full)
- T/C (dose: 0.25 mg/kg/injection, schedule: Q01DX010 (sc), vehicle: saline): 120 % of control
- T/C (dose: 0.25 mg/kg/injection, schedule: Q04DX003 (sc), vehicle: saline): 76 % of control
- T/C (dose: 0.5 mg/kg/injection, schedule: Q04DX003 (sc), vehicle: saline): 87 % of control
- T/C (dose: 0.75 mg/kg/injection, schedule: Q04DX003 (sc), vehicle: saline): 101 % of control
- T/C (dose: 1.0 mg/kg/injection, schedule: Q04DX003 (sc), vehicle: saline): 96 % of control
- T/C (dose: 1.5 mg/kg/injection, schedule: Q04DX003 (sc), vehicle: saline): 78 % of control
- T/C (dose: 2.0 mg/kg/injection, schedule: Q01DX010 (sc), vehicle: saline): -51 % of control
- T/C (dose: 2.0 mg/kg/injection, schedule: Q04DX003 (sc), vehicle: saline): 20 % of control
- T/C (dose: 3.0 mg/kg/injection, schedule: Q04DX003 (sc), vehicle: saline): 40 % of control

Compound: COc1cccc2c1C(=O)c1c(O)c3c(c(O)c1C2=O)C[C@@](O)(/C(C)=N/NC(=O)c1ccc(Cl)cc1)C[C@@H]3OC1CC(N)C(O)C(C)O1 (stereo not given in full)
- T/C (dose: 4.0 mg/kg/injection, schedule: Q01DX010 (sc), vehicle: water): 156 % of control
- T/C (dose: 6.0 mg/kg/injection, schedule: Q04DX003 (sc), vehicle: water): 64 % of control
- T/C (dose: 8.0 mg/kg/injection, schedule: Q01DX010 (sc), vehicle: water): 42 % of control
- T/C (dose: 16.0 mg/kg/injection, schedule: Q01DX010 (sc), vehicle: water): 43 % of control
- T/C (dose: 96.0 mg/kg/injection, schedule: Q04DX003 (sc), vehicle: water): 20 % of control and 33 % of control

Compound: O.O.[NH-]C1CCCCC1[NH-].[Pt+2] (stereo not given)
- T/C (dose: 5.0 mg/kg/injection, schedule: Q01DX010 (sc), vehicle: dextrose): 68 % of control
- T/C (dose: 10.0 mg/kg/injection, schedule: Q01DX010 (sc), vehicle: dextrose): 74 % of control
- T/C (dose: 20.0 mg/kg/injection, schedule: Q01DX010 (sc), vehicle: dextrose): 57 % of control

Compound: O=C(O)C1Cc2nc[nH]c2CN1CO (stereo not given)
- T/C [3]: 74 % of control
- T/C [4]: 85 % of control
- T/C [5]: 41 % of control
- T/C [10]: 87 % of control
